These results are taken from ChEMBL document CHEMBL4406923, “New Potent DOT1L Inhibitors for in Vivo Evaluation in Mouse” (ACS Med Chem Lett, 2019).

Active and inactive are the calls of the source. The rule behind the calls is not given here.

Data set [1] deals with T1, Histone-lysine N-methyltransferase EHMT2 (Homo sapiens) (UniProt Q96KQ7).
T1 sequence (whole entry): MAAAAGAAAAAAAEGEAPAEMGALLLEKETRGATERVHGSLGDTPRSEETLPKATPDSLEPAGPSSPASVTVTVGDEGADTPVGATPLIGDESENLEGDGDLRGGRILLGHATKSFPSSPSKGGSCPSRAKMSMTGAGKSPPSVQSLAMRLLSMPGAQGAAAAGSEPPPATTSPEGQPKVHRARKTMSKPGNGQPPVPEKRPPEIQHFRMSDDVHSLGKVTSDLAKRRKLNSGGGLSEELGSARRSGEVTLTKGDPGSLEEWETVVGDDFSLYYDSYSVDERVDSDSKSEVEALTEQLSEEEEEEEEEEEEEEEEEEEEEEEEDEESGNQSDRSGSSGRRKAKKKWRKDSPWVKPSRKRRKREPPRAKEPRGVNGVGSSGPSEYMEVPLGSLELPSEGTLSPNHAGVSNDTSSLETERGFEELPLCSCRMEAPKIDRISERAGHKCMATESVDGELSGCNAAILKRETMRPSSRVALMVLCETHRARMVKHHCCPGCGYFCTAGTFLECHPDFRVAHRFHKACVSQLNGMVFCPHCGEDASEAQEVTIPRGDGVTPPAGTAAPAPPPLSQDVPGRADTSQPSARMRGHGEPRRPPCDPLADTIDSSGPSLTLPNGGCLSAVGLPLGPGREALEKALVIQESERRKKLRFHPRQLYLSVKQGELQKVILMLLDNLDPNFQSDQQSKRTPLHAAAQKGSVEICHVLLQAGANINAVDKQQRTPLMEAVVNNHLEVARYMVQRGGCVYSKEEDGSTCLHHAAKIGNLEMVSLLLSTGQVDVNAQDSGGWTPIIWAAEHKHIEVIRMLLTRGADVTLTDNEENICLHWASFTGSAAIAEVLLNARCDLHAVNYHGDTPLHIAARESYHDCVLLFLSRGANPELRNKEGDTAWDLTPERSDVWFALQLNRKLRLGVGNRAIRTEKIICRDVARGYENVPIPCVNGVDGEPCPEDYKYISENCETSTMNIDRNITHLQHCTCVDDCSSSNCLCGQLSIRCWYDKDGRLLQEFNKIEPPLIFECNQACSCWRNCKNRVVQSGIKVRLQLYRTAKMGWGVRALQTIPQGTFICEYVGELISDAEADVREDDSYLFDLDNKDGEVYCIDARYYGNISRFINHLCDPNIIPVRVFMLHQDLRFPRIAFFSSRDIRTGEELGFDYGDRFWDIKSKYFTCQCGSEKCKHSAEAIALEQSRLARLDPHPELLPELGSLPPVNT
Description: Inhibition of G9a (unknown origin) at <5 uM using histone H3 peptide (1 to 21) as substrate in presence of co-factor SAM by LC-MS analysis.

In data set [2] the target is Histone-lysine N-methyltransferase SETD2 (Homo sapiens) (UniProt Q9BYW2). Description: Inhibition of SETD2 (unknown origin) at <5 uM using histone H3 peptide (21 to 44) as substrate in presence of co-factor SAM by LC-MS analysis.
Data set [3] concerns the target T2, Histone-lysine N-methyltransferase, H3 lysine-79 specific (Homo sapiens, UniProt Q8TEK3). Description: Inhibition of 0.05 nM DOT1L (2 to 416 residues) (unknown origin) using biotinylated nucleosome as substrate and [3H]SAM as co-factor preincubated for 30 mins followed by substrate and cofactor addition and measured after 180 mins by scintillation proximity assay.
Target sequence in this assay (Q8TEK3 whole entry, the tested form may be a part): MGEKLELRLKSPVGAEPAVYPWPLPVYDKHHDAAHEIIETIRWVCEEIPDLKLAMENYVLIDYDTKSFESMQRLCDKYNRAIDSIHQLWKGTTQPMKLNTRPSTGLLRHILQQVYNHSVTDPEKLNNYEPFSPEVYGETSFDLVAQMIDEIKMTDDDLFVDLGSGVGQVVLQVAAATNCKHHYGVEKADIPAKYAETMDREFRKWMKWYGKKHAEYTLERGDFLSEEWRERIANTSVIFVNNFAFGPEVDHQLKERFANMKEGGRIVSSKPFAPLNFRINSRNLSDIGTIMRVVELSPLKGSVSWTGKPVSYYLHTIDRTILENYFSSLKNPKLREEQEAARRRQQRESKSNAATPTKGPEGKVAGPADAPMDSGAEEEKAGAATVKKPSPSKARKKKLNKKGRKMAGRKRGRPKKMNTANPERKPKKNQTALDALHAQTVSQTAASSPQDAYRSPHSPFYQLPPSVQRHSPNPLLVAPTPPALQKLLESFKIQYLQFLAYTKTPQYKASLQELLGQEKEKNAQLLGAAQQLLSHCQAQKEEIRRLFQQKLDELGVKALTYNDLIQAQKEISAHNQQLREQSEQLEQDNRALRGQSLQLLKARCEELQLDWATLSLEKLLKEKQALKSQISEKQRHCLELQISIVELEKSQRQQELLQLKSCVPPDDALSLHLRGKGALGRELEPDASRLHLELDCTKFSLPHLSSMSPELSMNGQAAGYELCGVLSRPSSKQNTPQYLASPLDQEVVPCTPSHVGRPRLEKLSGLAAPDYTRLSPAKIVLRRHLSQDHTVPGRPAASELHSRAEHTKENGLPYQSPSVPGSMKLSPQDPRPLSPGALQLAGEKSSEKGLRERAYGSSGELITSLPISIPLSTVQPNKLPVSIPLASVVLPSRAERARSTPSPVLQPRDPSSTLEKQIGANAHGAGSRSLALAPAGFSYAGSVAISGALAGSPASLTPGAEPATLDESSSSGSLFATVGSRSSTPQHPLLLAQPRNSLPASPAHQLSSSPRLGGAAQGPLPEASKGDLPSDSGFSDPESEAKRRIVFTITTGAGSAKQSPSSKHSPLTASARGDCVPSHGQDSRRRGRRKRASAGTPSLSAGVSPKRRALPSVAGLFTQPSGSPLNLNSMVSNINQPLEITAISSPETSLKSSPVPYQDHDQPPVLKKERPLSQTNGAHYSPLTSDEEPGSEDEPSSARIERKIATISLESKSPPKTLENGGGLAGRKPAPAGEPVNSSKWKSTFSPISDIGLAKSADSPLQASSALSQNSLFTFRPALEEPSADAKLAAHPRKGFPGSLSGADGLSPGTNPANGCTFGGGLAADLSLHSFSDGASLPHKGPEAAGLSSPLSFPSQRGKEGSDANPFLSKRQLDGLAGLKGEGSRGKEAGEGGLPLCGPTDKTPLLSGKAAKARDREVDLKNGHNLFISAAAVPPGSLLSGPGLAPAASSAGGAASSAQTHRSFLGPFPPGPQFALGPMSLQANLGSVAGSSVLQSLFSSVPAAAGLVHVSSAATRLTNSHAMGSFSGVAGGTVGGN

The species named for data set [4] is Homo sapiens. Description: Inhibition of PRC2 complex of human full-length N-terminal FLAG-tagged EZH2/EED/SUZ12/AEBP2/RbAp48 expressed in baculovirus expression system at <5 uM using histone H3 peptide (21 to 44) as substrate in presence of co-factor SAM by LC-MS analysis.
Data set [5] concerns the target T3, N-lysine methyltransferase KMT5A (Homo sapiens) (UniProt Q9NQR1).
T3 sequence (whole entry): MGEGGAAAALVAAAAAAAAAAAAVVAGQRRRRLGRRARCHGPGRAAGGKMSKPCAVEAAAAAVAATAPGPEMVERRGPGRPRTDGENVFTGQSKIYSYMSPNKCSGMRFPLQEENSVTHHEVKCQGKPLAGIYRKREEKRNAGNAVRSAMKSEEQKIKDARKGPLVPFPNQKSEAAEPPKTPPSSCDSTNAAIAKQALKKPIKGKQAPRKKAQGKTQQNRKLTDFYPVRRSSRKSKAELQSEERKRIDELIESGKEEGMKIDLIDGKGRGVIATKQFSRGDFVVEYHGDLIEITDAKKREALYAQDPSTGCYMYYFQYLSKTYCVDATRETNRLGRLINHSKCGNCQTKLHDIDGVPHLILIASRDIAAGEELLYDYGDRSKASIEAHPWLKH
Description: Inhibition of SETD8 (unknown origin) at <5 uM using H4 (11 to 33 residues) as substrate in presence of co-factor SAM by LC-MS analysis.

Data set [6] addresses T2, Histone-lysine N-methyltransferase, H3 lysine-79 specific. Description: Binding affinity to DOT1l (unknown origin) assessed as dissociation half life by SPR assay.
Target sequence in this assay (Q8TEK3 whole entry, looked up, the tested form may be a part): as the sequence (Q8TEK3 whole entry, the tested form may be a part) above
Data set [7] addresses MLL1/ASH2L/RBBP5/WDR5 complex (Homo sapiens) (UniProt P61964+Q03164+Q9UBL3+Q15291). Description: Inhibition of MLL (MLL/ASH2L/RBBP5/WDR5) (unknown origin) at <5 uM using histone H3 peptide (1 to 21) as substrate in presence of co-factor SAM by LC-MS analysis. In kind it is protein-complex assay.
The test system of data set [8] is MV4-11. Description: Antitumor activity against human MV4-11 cells xenografted in C57BL/6 mouse assessed as reduction in tumor growth at <6 fold 300 mg/kg, po relative to control. In kind it is functional.
Data set [9] deals with Mus musculus. As to the kind of experiment: In vivo inhibition of DOT1L in C57BL/6 mouse xenografted with human MV4-11 cells assessed as reduction in HOXA9 gene expression at <6 fold 300 mg/kg, po relative to control. In kind it is functional. Background: Xenograft models place foreign cells or tissue in a host animal.
Data set [10] is described as follows: Toxicity in C57BL/6 mouse xenografted with human MV4-11 cells at 300 mg/kg, po. It counts as organism-based. Conditions: in vivo.

Chain of Histone-lysine N-methyltransferase SETD2 (Homo sapiens) (Q9BYW2 whole entry, the tested form may be a part): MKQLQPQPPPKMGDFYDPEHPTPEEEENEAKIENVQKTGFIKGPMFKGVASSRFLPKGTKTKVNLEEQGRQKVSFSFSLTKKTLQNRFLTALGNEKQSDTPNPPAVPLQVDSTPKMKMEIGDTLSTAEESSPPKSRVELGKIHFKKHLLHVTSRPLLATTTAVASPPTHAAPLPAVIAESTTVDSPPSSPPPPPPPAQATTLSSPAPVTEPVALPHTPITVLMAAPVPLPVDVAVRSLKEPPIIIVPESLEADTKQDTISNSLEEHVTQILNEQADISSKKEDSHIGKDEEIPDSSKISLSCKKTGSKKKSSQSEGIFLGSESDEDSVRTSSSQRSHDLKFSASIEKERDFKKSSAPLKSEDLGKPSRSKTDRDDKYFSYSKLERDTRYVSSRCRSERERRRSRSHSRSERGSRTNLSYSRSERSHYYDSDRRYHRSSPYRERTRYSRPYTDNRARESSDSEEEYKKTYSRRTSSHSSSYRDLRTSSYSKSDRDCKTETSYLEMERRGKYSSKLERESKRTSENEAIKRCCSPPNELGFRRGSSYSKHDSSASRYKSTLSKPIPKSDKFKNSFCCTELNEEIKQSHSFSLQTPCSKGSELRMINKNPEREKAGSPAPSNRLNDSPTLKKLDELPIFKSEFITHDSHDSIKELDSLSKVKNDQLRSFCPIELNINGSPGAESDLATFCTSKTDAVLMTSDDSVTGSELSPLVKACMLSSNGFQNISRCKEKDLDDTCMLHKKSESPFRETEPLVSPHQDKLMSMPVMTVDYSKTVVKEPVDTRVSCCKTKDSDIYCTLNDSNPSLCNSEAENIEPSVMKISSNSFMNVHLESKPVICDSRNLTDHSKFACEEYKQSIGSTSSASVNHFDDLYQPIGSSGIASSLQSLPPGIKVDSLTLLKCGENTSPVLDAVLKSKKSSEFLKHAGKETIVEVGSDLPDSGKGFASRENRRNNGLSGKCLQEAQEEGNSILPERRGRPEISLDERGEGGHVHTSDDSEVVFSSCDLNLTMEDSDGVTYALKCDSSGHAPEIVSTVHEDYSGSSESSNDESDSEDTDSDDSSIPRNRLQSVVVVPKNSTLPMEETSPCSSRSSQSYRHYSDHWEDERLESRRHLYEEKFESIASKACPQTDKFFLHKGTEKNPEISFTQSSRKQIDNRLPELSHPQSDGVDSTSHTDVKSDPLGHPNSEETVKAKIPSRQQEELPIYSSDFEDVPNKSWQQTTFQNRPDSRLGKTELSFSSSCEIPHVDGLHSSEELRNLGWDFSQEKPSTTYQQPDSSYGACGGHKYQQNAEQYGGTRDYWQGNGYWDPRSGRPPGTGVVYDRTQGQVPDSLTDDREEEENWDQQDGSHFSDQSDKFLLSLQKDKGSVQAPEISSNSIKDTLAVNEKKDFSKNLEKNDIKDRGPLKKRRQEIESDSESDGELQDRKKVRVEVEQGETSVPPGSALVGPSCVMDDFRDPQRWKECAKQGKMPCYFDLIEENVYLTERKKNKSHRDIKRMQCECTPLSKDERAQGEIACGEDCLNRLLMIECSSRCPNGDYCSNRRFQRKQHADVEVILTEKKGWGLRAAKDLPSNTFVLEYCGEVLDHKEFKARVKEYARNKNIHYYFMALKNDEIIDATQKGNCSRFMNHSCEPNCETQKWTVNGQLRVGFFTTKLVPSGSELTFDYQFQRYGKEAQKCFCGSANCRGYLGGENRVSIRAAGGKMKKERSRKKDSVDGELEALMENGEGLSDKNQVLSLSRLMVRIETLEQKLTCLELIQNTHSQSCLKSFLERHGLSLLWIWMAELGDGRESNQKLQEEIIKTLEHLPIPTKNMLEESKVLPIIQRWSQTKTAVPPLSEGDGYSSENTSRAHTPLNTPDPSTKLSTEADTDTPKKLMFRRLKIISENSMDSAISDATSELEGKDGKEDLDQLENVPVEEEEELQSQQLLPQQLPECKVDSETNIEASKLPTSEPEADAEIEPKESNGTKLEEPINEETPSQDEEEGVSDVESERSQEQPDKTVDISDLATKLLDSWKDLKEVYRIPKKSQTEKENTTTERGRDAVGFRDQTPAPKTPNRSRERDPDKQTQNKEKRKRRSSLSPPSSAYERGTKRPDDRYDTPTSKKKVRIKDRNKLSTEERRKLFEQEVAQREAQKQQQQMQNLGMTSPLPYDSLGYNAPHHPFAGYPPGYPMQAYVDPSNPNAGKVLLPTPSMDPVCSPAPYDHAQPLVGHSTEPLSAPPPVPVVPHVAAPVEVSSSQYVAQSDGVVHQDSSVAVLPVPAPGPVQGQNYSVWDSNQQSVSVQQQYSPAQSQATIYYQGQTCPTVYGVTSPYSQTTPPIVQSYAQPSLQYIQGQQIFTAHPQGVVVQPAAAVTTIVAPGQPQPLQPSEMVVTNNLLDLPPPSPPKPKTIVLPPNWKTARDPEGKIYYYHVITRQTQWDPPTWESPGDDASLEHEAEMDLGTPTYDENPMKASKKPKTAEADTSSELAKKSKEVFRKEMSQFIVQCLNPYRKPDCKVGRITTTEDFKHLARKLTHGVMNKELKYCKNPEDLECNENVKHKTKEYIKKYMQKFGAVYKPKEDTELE

On to `COc1nc(Nc2cc(S(C)(=O)=O)ccc2N[C@@H](c2cccc3c2OC(F)(F)O3)c2ncccc2Cl)nc(N2CCNCC2)n1`, for which the inhibition result in [1], in [2], in [4], in data set [5] and in [7] was “inactive” each time. The IC50 in data set [3] is 0.11 nM. Moreover, the T1/2 in data set [6] was more than 5 h. Besides, the “fold change (FC)” value in data set [8] and in data set [9] was less than 0.5 in each case. Moreover, the Activity entry in data set [10] is “Toxic”.

The IC50 is the concentration needed to halve the response being measured.
